Reference: PMC10677270, “2554. What’s Weight Got to Do with It? Prospective Pharmacokinetic/Pharmacodynamic Evaluation of Fixed-Dose Daptomycin” (Open Forum Infectious Diseases, 2023)

Assay: Steady-state pharmacokinetic/pharmacodynamic evaluation of fixed-dose (750 mg) daptomycin in patients with Staphylococcus aureus infections
Procedure: This study evaluated systemic exposure of a fixed dose (750 mg) of DAP in patients with Staphylococcus aureus infections. Methods Adult non-ICU patients with CrCl ≥ 30 mL/min admitted to our academic medical center warranting DAP for a S. aureus infection were eligible for enrollment. DAP 750 mg was infused over 30 minutes every 24 hours. At steady state, concentrations were obtained pre-dose (0.5 hours) and 1, 12, and 24 hours after the start of infusion. Concentrations were measured using a validated LC-MS assay. Pharmacokinetic (PK) analysis was performed using first-order equations and stratified by weight: low (< 65 kg), normal (65-85 kg), and high ( > 85 kg). Therapeutic AUC24 (≥ 666 mg*hr/L) and elevated trough (Cmin > 24.3 mg/L) were the efficacy and safety targets, respectively.

For CCCCCCCCCC(=O)N[C@@H](Cc1c[nH]c2ccccc12)C(=O)N[C@H](CC(N)=O)C(=O)N[C@@H](CC(=O)O)C(=O)N[C@@H]1C(=O)NCC(=O)N[C@@H](CCCN)C(=O)N[C@@H](CC(=O)O)C(=O)N[C@H](C)C(=O)N[C@@H](CC(=O)O)C(=O)NCC(=O)N[C@H](CO)C(=O)N[C@@H]([C@H](C)CC(=O)O)C(=O)N[C@@H](CC(=O)c2ccccc2N)C(=O)O[C@@H]1C [DAP, daptomycin], the Ke (all patients n=22, DAP 750 mg infused over 30 min every 24 h, LC-MS, first-order equations, median, IQR [0.046, 0.098]) was 0.078 h⁻¹, the Cmin (all patients n=22, DAP 750 mg infused over 30 min every 24 h, LC-MS, median, IQR [7.3, 29.9]) was 10.5 mg/L and the “Therapeutic AUC24 (>= 666 mg*hr/L) achieved, share of patients” value (from here on “Therapeutic AUC24”) (all patients, 14/22, DAP 750 mg every 24 h, efficacy target) was 64%. For the same compound, the “Therapeutic AUC24” value (females n=12, DAP 750 mg every 24 h) was 83% and the “Therapeutic AUC24” value (males n=10, DAP 750 mg every 24 h) was 40%.
